According to ChEMBL document CHEMBL4387764, “Structure-activity relationship study of thiazolyl-hydroxamate derivatives as selective histone deacetylase 6 inhibitors” (Bioorg Med Chem, 2019):

Legend:
in vitro [1] = conditions: CD-1, mouse, liver microsomes
in vitro [2] = conditions: CD-1, mouse, liver microsomes; remark: listed apart in the source
in vitro [3] = conditions: CD-1, mouse, liver microsomes; remark: listed apart in the source
in vitro [4] = conditions: CD-1, mouse, liver microsomes; remark: listed apart in the source
in vitro [5] = conditions: CD-1, mouse, liver microsomes; remark: listed apart in the source
in vitro [6] = conditions: CD-1, mouse, liver microsomes; remark: listed apart in the source
in vitro [7] = conditions: human, liver microsomes
in vitro [8] = conditions: human, liver microsomes; remark: listed apart in the source
in vitro [9] = conditions: human, liver microsomes; remark: listed apart in the source
in vitro [10] = conditions: human, liver microsomes; remark: listed apart in the source
in vitro [11] = conditions: human, liver microsomes; remark: listed apart in the source
in vitro [12] = conditions: human, liver microsomes; remark: listed apart in the source

O=C(CCc1csc(/C=C/c2ccc(F)cc2)n1)NO
remaining at 0 h, 1 µM (in vitro [1]): 100%
remaining at 0.5 h, 1 µM (in vitro [2]): 95.8%
remaining at 0 h, 1 µM (in vitro [3]): 107%
remaining at 5 min, 1 µM (in vitro [4]): 99.8%
remaining at 0.25 h, 1 µM (in vitro [5]): 68.6%
remaining at 0.5 h, 1 µM (in vitro [6]): 25.2%
remaining at 0 h, 1 µM (in vitro [7]): 100%
remaining at 0.5 h, 1 µM (in vitro [8]): 112%
remaining at 0 h, 1 µM (in vitro [9]): 106%
remaining at 5 min, 1 µM (in vitro [10]): 105%
remaining at 0.25 h, 1 µM (in vitro [11]): 103%
remaining at 0.5 h, 1 µM (in vitro [12]): 94.6%
